From PubChem BioAssay (NCI)
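Briefly, cells in 96-well plates were exposed to five compound concentrations for 48 h, and endpoints were estimated by linear interpolation. GI50 = concentration required for 50% inhibition of growth. TGI is the concentration that stops growth completely.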

Assays:
Test in all cases: NCI anticancer screen, dose series, 48 h
[1] = test system: SK-MEL-2 melanoma
[2] = test system: SK-MEL-28 melanoma
[3] = test system: OVCAR-5 ovarian
[4] = test system: HCT-116 colon
[5] = test system: HCC-2998 colon
[6] = test system: OVCAR-3 ovarian
[7] = test system: HOP-92 NSCLC
[8] = test system: SF-539 CNS
[9] = test system: CAKI-1 renal
[10] = test system: SR leukemia

Structure (SMILES)	TGI [1] [µM]	TGI [2] [µM]	TGI [3] [µM]	TGI [4] [µM]	TGI [5] [µM]	TGI [6] [µM]	TGI [7] [µM]	GI50 [1] [µM]	GI50 [2] [µM]	GI50 [3] [µM]	GI50 [5] [µM]	GI50 [8] [µM]	TGI [8] [µM]	GI50 [6] [µM]	GI50 [7] [µM]	GI50 [9] [µM]	TGI [9] [µM]	GI50 [4] [µM]	TGI [10] [µM]	GI50 [10] [µM]
COc1ccc(/C=C/CN(C)CCc2ccccc2)cc1OC	> 100	> 100	> 100	> 100	> 100	> 100	9.9													
CCOC(=O)[C]1([Bi]([CH3])[CH3])N=NC(C(=O)OC)=C1C(=O)OC (stereo not given)	33.7	30.4	> 10		30.7	31.7	42.8	18.3	16.2	> 10	16.4	18.1	32.3	16.5	20.4	15.9	29.3			
C[C@]12CC[C@H]3[C@@H](CC=C4C[C@@H](O)CC[C@@]43C)[C@@H]1CC[C@@H]2N(CCO)CCO	> 100	> 100	> 100	> 100	94.9	> 100	> 100						> 100				> 100			
O=C1CCC(=O)N2CCCCN12	> 100	> 100	> 100	> 100	> 100	> 100	> 100						> 100				> 100			
N#Cc1ccc(NC(=O)Nc2ccc(Oc3ccc(NC(=O)Nc4ccc(C#N)cc4)cc3)cc2)cc1	88.9	> 100	> 100	> 100	7.53	> 100	62.7	22.4	79.2	26.1	0.764	17.6	59.4	19.4	13.3	20.8	> 100	4.02		
C/C(CC(=O)Nc1cc(Cl)c(Cl)cc1Cl)=N\NC(N)=O	> 100	> 100	> 100	> 100	> 100	> 100	> 100						> 100							
Cc1ccc2c(c1)[n+]([O-])c(N)n[n+]2[O-]	> 100	> 100	> 100	> 100		> 100							> 100				> 100		> 100	
O/N=C/C1c2ccccc2-c2ccccc21	36.1	29.2		32.8	31.9	34.1	28						31				33.2		51.7	
O=C1O[C@@H](c2ccc3c(c2)OCO3)C2C(=O)O[C@@H](c3ccc4c(c3)OCO4)C12 (stereo not given in full)	> 100	> 100		> 100	> 100	> 100	> 100						> 100							
CCOC(=O)C1=C(OC(OCC)C(CC)[Se]c2ccccc2)CCCC1 (stereo not given)	43	> 100	67.7	45	> 100	65.7	46						35.4				> 100			
Oc1ccc(CN2CCC(N3CCCCC3)CC2)c2cccnc12	> 100	> 100	> 100	> 100	> 100	> 100	> 100	27.9	21.4	45.4	64.2			27.5	4.51	33.8	> 100	4.49	> 100	16.7
CS(=O)(=O)c1ccc([C@H]2O[C@@H](CO)C[C@]2(O)c2ccc(S(C)(=O)=O)cc2)cc1		> 100	> 100	> 100	> 100	> 100	> 100		> 100	> 100	> 100	> 100	> 100	> 100	> 100	> 100	> 100	> 100	> 100	> 100
O=c1c2cc([N+](=O)[O-])ccc2sc2ccsc12	> 100	> 100	> 100	> 100	> 100	> 100	> 100						> 100							
CC(=O)CNC(=O)OC(C)(C)C	> 100	> 100	> 100	> 100		> 100	> 100						> 100				> 100		> 100	
FC(F)(F)c1cccc(Nc2nccc(-c3cnn4nc(-c5ccccc5)ccc34)n2)c1		> 20.4	> 25	14.8	> 25	11	10.9		8.11	> 22.9	23.5	6.59	> 18.7	5.24	3.54	10.2	> 25	5.92	> 25	2.15
O=C(O)CNS(=O)(=O)c1ccc(NCc2ccccc2)cc1	> 100	> 100	> 100	> 100	> 100		> 100						> 100				> 100			
N#Cc1cc([N+](=O)[O-])ccc1NC(=O)C(=O)Nc1n[nH]c(N)n1	> 100	> 100	> 100	> 100	> 100	> 100	> 100						> 100				> 100			
CSC(C1c2ccccc2N(c2ccc(C)cc2)C2=NC(=O)N(C)C(=O)C21Cl)S(=O)(=O)c1ccc(C)cc1 (stereo not given)	38.9	45.1	83.2	25.7	36.6	30.9	27.9						34.3				43.2			
Nc1nc(Cl)c2ncn(Cc3ccc(C45CC6CC(CC(C6)C4)C5)c(O)c3)c2n1	48.3	25.9	20.6	3.15	8.34	11.1	6.19	16	10.6	6.13	2.26	11.8	26.7	2.32	1.48	1.77	4.8	1.1		
